Entries after “also recorded” stand apart in the source; their conditions may differ.
How the values were obtained:
[1] = tested on: deep lymphatic system; assay: Whole-body dynamic 3D-micro-MR lymphangiography of normal mice (Example 2); assay type: in vivo; conditions: for Number of Mice in Which the Thoracic Duct was Visualized/Number of Mice Examined: Normal Mice, 0.1 μmolGd intracutaneously into four middle phalanges
Description: (§1) The mice were anesthetized with 1.15 mg sodium pentobarbital (Dainabot, Osaka, Japan) i.p., and then injected intracutaneously with 0.1 μmolGd of PAMAM-G8, DAB-G5, PAMAM-G4, Gadomer-17, or GPDM into four middle phalanges in all four extremities. Dynamic micro-MR images were obtained using a 1.5-Tesla superconductive magnet unit (Signa LX, General Electric Medical System, Milwaukee, Wis.) with a round birdcage type coil of 3 cm diameter fixed by a custom-made coil holder. Four to eight female mice (7 weeks old, 18-21 g body weight) in each group were used and each contrast agent was prepared at least three separate times for these imaging studies. The mice were wrapped with gauze to stabilize their body temperature and were placed at the center of the coils.
(§2) A 3D-fast spoiled gradient echo [3D-fastSPGR (efgre3d package; Signa Horizon, GE); repetition time/echo time 28.5/7.9 msec; inversion time 65 msec; 31.2 kHz, flip angle 30°, four excitations; 40 slice-encoding steps; scan time 7 min 36 seconds] with chemical shift fat-suppression was used 10, 20, 30, and 45 min after injection of the contrast agents. The coronal images were reconstructed with 0.6-mm section thickness at every 0.3-mm. The FOV was 6×3 cm and the size of the matrix was 512×256. The intensities of the regions of interest (ROIs) (for example, a whole axillary lymph node, and the liver) were measured, and then the time-intensity curves analyzed. The data were expressed as the axillary lymph node-to-muscle and the axillary lymph node-to-liver ratios. The slice data were processed into 3D images using the MIP method with the same window and level (window 3500 and level 2300) (Advantage Windows, General Electric Medical System). Two board-certified radiologists separately read a set of stereo views of 3D-MRL for all studies, and estimated the visualization of the thoracic duct. After imaging, the mice were sacrificed by carbon dioxide inhalation.
Statistical analyses were performed using either Student's t-test or a one-way analysis of variance (ANOVA), with a pairwise comparison using the Bonferroni method for signal intensity curves (Statview; SAS Institute Inc., Cary, N.C.).

[2] = tested on: lymphatic vessels in Concanavalin A lymphangitis; assay: 3D-micro-MRL in Concanavalin A lymphangitis model; assay type: in vivo, C57BL6 mice; conditions: FIGS. 10, 14A
Description: To generate a lymphangitis model, Concanavalin A ([…]) (Sigma, St. Louis, Mo.) was injected intravenously into C57BL6 mice (NCI, Frederick, Md.) 24 hours before MRI was performed.
The mice were anesthetized with 1.15 mg sodium pentobarbital (Dainabot, Osaka, Japan) i.p., and then injected intracutaneously with 0.1 μmolGd of PAMAM-G8, DAB-G5, PAMAM-G4, Gadomer-17, or GPDM into four middle phalanges in all four extremities. Dynamic micro-MR images were obtained using a 1.5-Tesla superconductive magnet unit (Signa LX, General Electric Medical System, Milwaukee, Wis.) with a round birdcage type coil of 3 cm diameter fixed by a custom-made coil holder. […]
A 3D-fast spoiled gradient echo [3D-fastSPGR (efgre3d package; Signa Horizon, GE); repetition time/echo time 28.5/7.9 msec; inversion time 65 msec; 31.2 kHz, flip angle 30°, four excitations; 40 slice-encoding steps; scan time 7 min 36 seconds] with chemical shift fat-suppression was used 10, 20, 30, and 45 min after injection of the contrast agents. […] The intensities of the regions of interest (ROIs) (for example, a whole axillary lymph node, and the liver) were measured, and then the time-intensity curves analyzed. The data were expressed as the axillary lymph node-to-muscle and the axillary lymph node-to-liver ratios. […]

[3] = tested on: lymph nodes and lymphatic vessels of IL-15 transgenic mice; assay: 3D-micro-MRL in IL-15 transgenic lymphoproliferative/neoplastic disease model; assay type: in vivo; conditions: 45 minutes after injection
Description: Eight- to 10-month old IL-15 transgenic mice (on a C57BL6 background) were used as a chronic lymphoproliferative/neoplastic disease model because they manifested selective expansion of NK, CD8^+NK-T, γδIELs, and CD8 T cells in the periphery. Most of the lymph nodes collected from an aged IL-15 transgenic mouse were enlarged in size. The lesion of proliferated monoclonal lymphocytes often involved the lung and the subcutaneous lymphatic tissue.
as §1
(§3) A 3D-fast spoiled gradient echo [3D-fastSPGR (efgre3d package; Signa Horizon, GE); repetition time/echo time 28.5/7.9 msec; inversion time 65 msec; 31.2 kHz, flip angle 30°, four excitations; 40 slice-encoding steps; scan time 7 min 36 seconds] with chemical shift fat-suppression was used 10, 20, 30, and 45 min after injection of the contrast agents. The coronal images were reconstructed with 0.6-mm section thickness at every 0.3-mm. […] The intensities of the regions of interest (ROIs) (for example, a whole axillary lymph node, and the liver) were measured, and then the time-intensity curves analyzed. The data were expressed as the axillary lymph node-to-muscle and the axillary lymph node-to-liver ratios. […] Two board-certified radiologists separately read a set of stereo views of 3D-MRL for all studies, and estimated the visualization of the thoracic duct. […]

[4] = tested on: lymph nodes infiltrated with MC-38 colorectal cancer cells; assay: 3D-MRL in MC38 colorectal cancer lymph node metastasis model; assay type: in vivo, C57BL6 mice
Description: In addition, 10-week-old C57BL6 mice (NCI, Frederick, Md.) bearing lymph node metastases of MC38 colorectal cancer cells following either intravenous or subcutaneous injection were used as a mouse model manifesting lymph node metastasis.
The mice were anesthetized with 1.15 mg sodium pentobarbital (Dainabot, Osaka, Japan) i.p., and then injected intracutaneously with 0.1 μmolGd of PAMAM-G8, DAB-G5, PAMAM-G4, Gadomer-17, or GPDM into four middle phalanges in all four extremities. […]
as §3, with “agents.” for “agents. The coronal images were reconstructed with 0.6-mm section thickness at every 0.3-mm.”

[5] = tested on: deep lymph nodes, thoracic duct and lymphatic vessels; assay: Whole-body 3D-micro-MR lymphangiography of normal mice, PAMAM-G8 versus GPDM (Example 3); assay type: in vivo
Description: as §1, §2
(§4) In this example, the PAMAM-G8 contrast agent is compared to GPDM. PAMAM-G8 was prepared as described in Example 2, and GPDM was purchased (Schering AG, Berlin, Germany). Animal models, administration of the contrast agents, and 3D-micro-MRL were as described in Example 2.

[6] = tested on: external iliac lymph nodes in infection model; assay: 3D-micro-MRL of nude mice with spontaneous oral ulcers and urinary tract infections; assay type: in vivo; conditions: 45 minutes after injection, FIG. 16B
Description: as §4
Nude mice that develop spontaneous oral ulcers and urinary tract infections also were examined.

[7] = Distribution and survival properties of the dendrimer conjugates; conditions: in vivo

Substance: PAMAM-G7D-(Gd-1B4M)1024 dendrimer conjugate [PAMAM-G8]
- Number of Mice in Which the Thoracic Duct was Visualized/Number of Mice Examined ([1]; 10 min): 10/10
- Number of Mice in Which the Thoracic Duct was Visualized/Number of Mice Examined ([1]; 20 min): 10/10
- Number of Mice in Which the Thoracic Duct was Visualized/Number of Mice Examined ([1]; 30 min): 10/10
- Number of Mice in Which the Thoracic Duct was Visualized/Number of Mice Examined ([1]; 45 min): 10/10
- Axillary lymph node-to-background (muscle) signal intensity ratio, comparison between agents ([1]; T1-weighted signal, all time points examined, P<0.01, FIG. 9A): significantly higher than that measured with Gadomer-17 and GPDM
- Axillary lymph node-to-liver signal intensity ratio, comparison between agents ([1]; all time points examined, P<0.01, FIG. 9B): nearly equivalent, but were significantly higher than that measured with GPDM
- Visualization of the lymphatic vessels, comparison between agents ([1]; normal mice): better visualized with PAMAM-G8 compared to all other agents examined
- Visualization of the deep lymph nodes ([1]; normal mice, 10 to 45 min after intracutaneous injection, FIGS. 7, 8): enabled most of the deep lymph nodes to be visualized
- Visualization by a radiologist of the thoracic duct ([1]; normal mice, all times after administration): in all mice at all times after administration
- Detection of dilation of the lymphatic vessels [2]: demonstrated the remarkable dilation of the lymphatic vessels throughout the body, especially in the liver; also recorded: able to detect remarkable dilation of lymphatic vessels
- Visualization of dilation of lymphatic vessels ([3]; FIG. 11): best visualized with PAMAM-G8
- Lymph node findings on 3D-micro-MRL ([3]; FIGS. 11, 15A): considerable multiple lymph node swellings with central filling defects; also recorded: enlargement and a lack of enhancement within several of the lymph nodes
- Findings on 3D-MRL in mouse with lymph node metastasis ([4]; 45 minutes after injection, FIG. 12 left image): dilated lymphatic vessels surrounding the tumor and a collateral lymphatic vessel
- Findings on 3D-MRL in mice with subcutaneously xenografted MC-38 tumor ([4]; FIG. 12 right image): did not show any abnormalities in either the lymph nodes or the lymphatic vessels
- Visualization of other lymphatic vessels [5]: better visualized with PAMAM-G8 than with GPDM
- Visualization of deep lymph nodes throughout the body ([5]; intracutaneous injection, 0.05 mmolGd/kg (FIG. 13)): most deep lymph nodes throughout the body were visualized
- Visualization of the thoracic duct ([5]; intracutaneous injection, FIG. 13): visualized in all six mice
- Lymph node findings in infection model [6]: irregular dilation of the lymphatic vessels in the lymph nodes
- Distribution within the lymphatic system [7]: lymphotropic behavior (accumulation in the lymph system) and minimal leakage out of the lymphatic vessels

— patent US20050171424A1, “Methods for imaging the lymphatic system using dendrimer-based contrast agents” (The Gov. of the USA as rep. by the Secretary of the Dept. …, priority 2004, published 2005)
